# Measured values taken from ChEMBL document CHEMBL3885881, “DrugMatrix”.
# Species: Rattus norvegicus
# Assay: DrugMatrix - Regimen: Daily Repeat
# Assay type: toxicity, organism-based, Sprague-Dawley
# Set-up: regimen Daily Repeat, gender Male, age 6-8 weeks
# Conditions: in vivo, po, route oral GAVAGE, vehicle .5 % CMC; for ABSOLUTE BASOPHIL / ABSOLUTE EOSINOPHIL / ABSOLUTE LYMPHOCYTE / ABSOLUTE MONOCYTE / ABSOLUTE SEGMENTED NEUTROPHIL / BASOPHIL / EOSINOPHIL / ERYTHROCYTE COUNT / HEMATOCRIT / HEMOGLOBIN / LEUKOCYTE COUNT / LYMPHOCYTE / MEAN CORPUSCULAR HEMOGLOBIN / MEAN CORPUSCULAR HEMOGLOBIN CONCENTRATION / MEAN CORPUSCULAR VOLUME / MONOCYTE / NEUTROPHIL / NUCLEATED RED BLOOD CELLS / PLATELET COUNT: tissue Blood; for ALANINE AMINOTRANSFERASE / ALBUMIN / ALKALINE PHOSPHATASE / ASPARTATE AMINOTRANSFERASE / BLOOD UREA NITROGEN / CARBON DIOXIDE / CHLORIDE / CHOLESTEROL / CREATINE PHOSPHOKINASE / CREATININE / GLUCOSE / LACTATE DEHYDROGENASE / LIPASE / PHOSPHORUS / POTASSIUM / SODIUM / TOTAL BILIRUBIN / TOTAL PROTEIN / URIC ACID: tissue Plasma
# [1] = 1 mg/kg, 72 h, dose level Low, time 3 day
# [2] = 1 mg/kg, 120 h, dose level Low, time 5 day
# [3] = 1500 mg/kg, 72 h, dose level High, time 3 day
# [4] = 1500 mg/kg, 120 h, dose level High, time 5 day
compound,measurement,setting,value
CCOC(=O)[C@H](CCc1ccccc1)N[C@@H](C)C(=O)N1[C@H](C(=O)O)C[C@@H]2CCC[C@@H]21,ABSOLUTE BASOPHIL,[1],0 CELLS/uL
same,ABSOLUTE EOSINOPHIL,[1],0 CELLS/uL
same,ABSOLUTE LYMPHOCYTE,[1],13012 CELLS/uL
same,ABSOLUTE MONOCYTE,[1],125.67 CELLS/uL
same,ABSOLUTE SEGMENTED NEUTROPHIL,[1],829 CELLS/uL
same,BASOPHIL,[1],0%
same,EOSINOPHIL,[1],0%
same,ERYTHROCYTE COUNT,[1],5.51 x10E6/uL
same,HEMATOCRIT,[1],35.1%
same,HEMOGLOBIN,[1],14.07 G/DL
same,LEUKOCYTE COUNT,[1],13.97 x10E3/uL
same,LYMPHOCYTE,[1],92.67%
same,MEAN CORPUSCULAR HEMOGLOBIN,[1],25.53 pg
same,MEAN CORPUSCULAR HEMOGLOBIN CONCENTRATION,[1],40.07 G/DL
same,MEAN CORPUSCULAR VOLUME,[1],63.73 fL
same,MONOCYTE,[1],1%
same,NEUTROPHIL,[1],6.33%
same,NUCLEATED RED BLOOD CELLS,[1],0 /100WBC
same,PLATELET COUNT,[1],1322.67 x10E3/uL
same,ALANINE AMINOTRANSFERASE,[1],44.33 u/L
same,ALBUMIN,[1],4.53 G/DL
same,ALKALINE PHOSPHATASE,[1],320.33 u/L
same,ASPARTATE AMINOTRANSFERASE,[1],82 u/L
same,BLOOD UREA NITROGEN,[1],17 mg/dL
same,CARBON DIOXIDE,[1],28 mmol/L
same,CHLORIDE,[1],100.33 MEQ/L
same,CHOLESTEROL,[1],74.33 mg/dL
same,CREATINE PHOSPHOKINASE,[1],223 u/L
same,CREATININE,[1],0.15 mg/dL
same,GLUCOSE,[1],156.33 mg/dL
same,LACTATE DEHYDROGENASE,[1],243 u/L
same,LIPASE,[1],9.33 u/L
same,PHOSPHORUS,[1],13.7 mg/dL
same,POTASSIUM,[1],7.23 MEQ/L
same,SODIUM,[1],146.6 MEQ/L
same,TOTAL BILIRUBIN,[1],0.27 mg/dL
same,TOTAL PROTEIN,[1],6.27 G/DL
same,URIC ACID,[1],1.87 mg/dL
same,ABSOLUTE BASOPHIL,[2],0 CELLS/uL
same,ABSOLUTE EOSINOPHIL,[2],73 CELLS/uL
same,ABSOLUTE LYMPHOCYTE,[2],14658 CELLS/uL
same,ABSOLUTE MONOCYTE,[2],332.67 CELLS/uL
same,ABSOLUTE SEGMENTED NEUTROPHIL,[2],1636.33 CELLS/uL
same,BASOPHIL,[2],0%
same,EOSINOPHIL,[2],0.33%
same,ERYTHROCYTE COUNT,[2],5.38 x10E6/uL
same,HEMATOCRIT,[2],35.13%
same,HEMOGLOBIN,[2],13.27 G/DL
same,LEUKOCYTE COUNT,[2],16.7 x10E3/uL
same,LYMPHOCYTE,[2],88.33%
same,MEAN CORPUSCULAR HEMOGLOBIN,[2],24.7 pg
same,MEAN CORPUSCULAR HEMOGLOBIN CONCENTRATION,[2],37.8 G/DL
same,MEAN CORPUSCULAR VOLUME,[2],65.37 fL
same,MONOCYTE,[2],1.67%
same,NEUTROPHIL,[2],9.67%
same,NUCLEATED RED BLOOD CELLS,[2],0 /100WBC
same,PLATELET COUNT,[2],1368.33 x10E3/uL
same,ALANINE AMINOTRANSFERASE,[2],58.33 u/L
same,ALBUMIN,[2],4.37 G/DL
same,ALKALINE PHOSPHATASE,[2],395 u/L
same,ASPARTATE AMINOTRANSFERASE,[2],74.67 u/L
same,BLOOD UREA NITROGEN,[2],20 mg/dL
same,CARBON DIOXIDE,[2],28.67 mmol/L
same,CHLORIDE,[2],101.67 MEQ/L
same,CHOLESTEROL,[2],69.67 mg/dL
same,CREATINE PHOSPHOKINASE,[2],158.67 u/L
same,CREATININE,[2],0.2 mg/dL
same,GLUCOSE,[2],153.67 mg/dL
same,LACTATE DEHYDROGENASE,[2],81.67 u/L
same,LIPASE,[2],8.33 u/L
same,PHOSPHORUS,[2],12.57 mg/dL
same,POTASSIUM,[2],6.7 MEQ/L
same,SODIUM,[2],146.17 MEQ/L
same,TOTAL BILIRUBIN,[2],0.2 mg/dL
same,TOTAL PROTEIN,[2],6.03 G/DL
same,URIC ACID,[2],1.43 mg/dL
same,ABSOLUTE BASOPHIL,[3],0 CELLS/uL
same,ABSOLUTE EOSINOPHIL,[3],134.33 CELLS/uL
same,ABSOLUTE LYMPHOCYTE,[3],16266.67 CELLS/uL
same,ABSOLUTE MONOCYTE,[3],0 CELLS/uL
same,ABSOLUTE SEGMENTED NEUTROPHIL,[3],1032.33 CELLS/uL
same,BASOPHIL,[3],0%
same,EOSINOPHIL,[3],0.67%
same,ERYTHROCYTE COUNT,[3],5.12 x10E6/uL
same,HEMATOCRIT,[3],34.53%
same,HEMOGLOBIN,[3],13.77 G/DL
same,LEUKOCYTE COUNT,[3],17.43 x10E3/uL
same,LYMPHOCYTE,[3],93%
same,MEAN CORPUSCULAR HEMOGLOBIN,[3],26.9 pg
same,MEAN CORPUSCULAR HEMOGLOBIN CONCENTRATION,[3],39.93 G/DL
same,MEAN CORPUSCULAR VOLUME,[3],67.37 fL
same,MONOCYTE,[3],0%
same,NEUTROPHIL,[3],6.33%
same,NUCLEATED RED BLOOD CELLS,[3],0.33 /100WBC
same,PLATELET COUNT,[3],1317.67 x10E3/uL
same,ALANINE AMINOTRANSFERASE,[3],41.33 u/L
same,ALBUMIN,[3],4.1 G/DL
same,ALKALINE PHOSPHATASE,[3],454.33 u/L
same,ASPARTATE AMINOTRANSFERASE,[3],81.67 u/L
same,BLOOD UREA NITROGEN,[3],30.67 mg/dL
same,CARBON DIOXIDE,[3],21.67 mmol/L
same,CHLORIDE,[3],104.67 MEQ/L
same,CHOLESTEROL,[3],56.67 mg/dL
same,CREATINE PHOSPHOKINASE,[3],460 u/L
same,CREATININE,[3],0.26 mg/dL
same,GLUCOSE,[3],192.67 mg/dL
same,LACTATE DEHYDROGENASE,[3],379.67 u/L
same,LIPASE,[3],8 u/L
same,PHOSPHORUS,[3],12.53 mg/dL
same,POTASSIUM,[3],7.28 MEQ/L
same,SODIUM,[3],143.5 MEQ/L
same,TOTAL BILIRUBIN,[3],0.17 mg/dL
same,TOTAL PROTEIN,[3],5.9 G/DL
same,URIC ACID,[3],1.93 mg/dL
same,ABSOLUTE BASOPHIL,[4],0 CELLS/uL
same,ABSOLUTE EOSINOPHIL,[4],56.33 CELLS/uL
same,ABSOLUTE LYMPHOCYTE,[4],15250 CELLS/uL
same,ABSOLUTE MONOCYTE,[4],259.67 CELLS/uL
same,ABSOLUTE SEGMENTED NEUTROPHIL,[4],1034 CELLS/uL
same,BASOPHIL,[4],0%
same,EOSINOPHIL,[4],0.33%
same,ERYTHROCYTE COUNT,[4],5.8 x10E6/uL
same,HEMATOCRIT,[4],35.77%
same,HEMOGLOBIN,[4],14.07 G/DL
same,LEUKOCYTE COUNT,[4],16.6 x10E3/uL
same,LYMPHOCYTE,[4],92%
same,MEAN CORPUSCULAR HEMOGLOBIN,[4],24.3 pg
same,MEAN CORPUSCULAR HEMOGLOBIN CONCENTRATION,[4],39.37 G/DL
same,MEAN CORPUSCULAR VOLUME,[4],61.63 fL
same,MONOCYTE,[4],1.67%
same,NEUTROPHIL,[4],6%
same,NUCLEATED RED BLOOD CELLS,[4],0 /100WBC
same,PLATELET COUNT,[4],1413.67 x10E3/uL
same,ALANINE AMINOTRANSFERASE,[4],55.33 u/L
same,ALBUMIN,[4],4.33 G/DL
same,ALKALINE PHOSPHATASE,[4],583.33 u/L
same,ASPARTATE AMINOTRANSFERASE,[4],89.33 u/L
same,BLOOD UREA NITROGEN,[4],31.33 mg/dL
same,CARBON DIOXIDE,[4],29 mmol/L
same,CHLORIDE,[4],102 MEQ/L
same,CHOLESTEROL,[4],35 mg/dL
same,CREATINE PHOSPHOKINASE,[4],314.67 u/L
same,CREATININE,[4],0.26 mg/dL
same,GLUCOSE,[4],150.33 mg/dL
same,LACTATE DEHYDROGENASE,[4],374.33 u/L
same,LIPASE,[4],8.67 u/L
same,PHOSPHORUS,[4],11.03 mg/dL
same,POTASSIUM,[4],7.1 MEQ/L
same,SODIUM,[4],143.93 MEQ/L
same,TOTAL BILIRUBIN,[4],0.27 mg/dL
same,TOTAL PROTEIN,[4],6.3 G/DL
same,URIC ACID,[4],1.6 mg/dL
